Data reported in US8802597B2, “Herbicidal pyrimidines” (E I du Pont de Nemours and Company, priority 2003, dated 2014).

Experiments:
Experiment in all cases: Test E flooded paddy water application
Assay type in all cases: in vivo
[1] = test system: purple redstem (Ammannia coccinea); conditions: Flood, 21 days, scale 0 to 100 (0 no effect, 100 complete control)
Procedure, shortened: (§1)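 Weeds sown in sterilized Tama silt loam (2.6% organic matter), greenhouse 29.5/26.7° C, 16-h photoperiod; at 2.0–2.5-leaf stage pots flooded to 3 cm and compound added to paddy water. Visual rating vs untreated controls after 21 days, 0 (no effect) to 100 (complete control).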

[2] = test system: late watergrass (Echinochloa oryzicola); conditions: Flood, 21 days, scale 0 to 100 (0 no effect, 100 complete control)
Procedure, shortened: as §1

[3] = test system: rice flatsedge (Cyperus iria); conditions: Flood, 21 days, scale 0 to 100 (0 no effect, 100 complete control)
Procedure, shortened: as §1

[4] = test system: transplanted rice seedlings (Oryza sativa cv. ‘Japonica-M202’); conditions: Flood, 21 days, scale 0 to 100 (0 no effect, 100 complete control)
Procedure, shortened: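 Response scored visually on a 0–100 scale (100 = complete control) at 21 days against untreated pots. Treatment was into paddy water 3 cm deep over silt loam, with plants at the 2.0–2.5-leaf stage, grown under 16-h light at 29.5/26.7 °C day/night.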

[5] = test system: bearded (brdd.) sprangletop (Leptochloa fusca ssp. fascicularis); conditions: Flood, 21 days, scale 0 to 100 (0 no effect, 100 complete control)
Procedure, shortened: as §1

[6] = test system: barnyardgrass (Echinochloa crus-galli); conditions: Flood, 21 days, scale 0 to 100 (0 no effect, 100 complete control); for Plant response rating, Barnyardgrass: 16 g ai/ha
Procedure, shortened: as §1

SMILES | Redstem plant response rating ([1]; 64 g ai/ha) | Redstem plant response rating ([1]; 125 g ai/ha) | Redstem plant response rating ([1]; 250 g ai/ha) | Plant response rating, Redstem ([1]; 16 g ai/ha) | Watergrass, Late plant response rating ([2]; 64 g ai/ha) | Watergrass, Late plant response rating ([2]; 125 g ai/ha) | Watergrass, Late plant response rating ([2]; 250 g ai/ha) | Plant response rating, Watergrass, Late ([2]; 16 g ai/ha) | Flatsedge, Rice plant response rating ([3]; 64 g ai/ha) | Flatsedge, Rice plant response rating ([3]; 125 g ai/ha) | Flatsedge, Rice plant response rating ([3]; 250 g ai/ha) | Plant response rating, Flatsedge, Rice ([3]; 16 g ai/ha) | Rice, Transplanted plant response rating ([4]; 64 g ai/ha) | Rice, Transplanted plant response rating ([4]; 125 g ai/ha) | Rice, Transplanted plant response rating ([4]; 250 g ai/ha) | Plant response rating, Rice, Transplanted ([4]; 16 g ai/ha) | Sprangletop, Brdd. plant response rating ([5]; 64 g ai/ha) | Sprangletop, Brdd. plant response rating ([5]; 125 g ai/ha) | Sprangletop, Brdd. plant response rating ([5]; 250 g ai/ha) | Plant response rating, Sprangletop, Brdd. ([5]; 16 g ai/ha) | also measured
Nc1nc(-c2ccc(Br)cc2)nc(C(=O)O)c1Cl [Compound 95, 6-amino-2-(4-bromophenyl)-5-chloro-4-pyrimidinecarboxylic acid] | 30 | 70 | 80 | 30 | 0 | 0 | 0 | 0 | 0 | 0 | 0 | 0 | 0 | 0 | 15 | 0 | 0 | 0 | 0 | 0 | Watergrass, Late plant response rating ([2]; 32 g ai/ha): 0; Flatsedge, Rice plant response rating ([3]; 32 g ai/ha): 0; Rice, Transplanted plant response rating ([4]; 32 g ai/ha): 0; Sprangletop, Brdd. plant response rating ([5]; 32 g ai/ha): 0; Barnyardgrass plant response rating ([6]; 32 g ai/ha): 0; Barnyardgrass plant response rating ([6]; 64 g ai/ha): 0; Barnyardgrass plant response rating ([6]; 125 g ai/ha): 0; Barnyardgrass plant response rating ([6]; 250 g ai/ha): 0; Plant response rating, Barnyardgrass [6]: 0
COC(=O)c1nc(-c2ccc(Br)cc2)nc(N)c1Cl [Compound 96, methyl 6-amino-2-(4-bromophenyl)-5-chloro-4-pyrimidinecarboxylate] | 90 | 100 | 100 | 0 | 0 | 0 | 0 | 0 | 100 | 100 | 100 | 100 | 0 | 10 | 20 | 0 | 0 | 0 | 0 | 0 | Redstem plant response rating ([1]; 32 g ai/ha): 85; Watergrass, Late plant response rating ([2]; 32 g ai/ha): 0; Flatsedge, Rice plant response rating ([3]; 32 g ai/ha): 100; Rice, Transplanted plant response rating ([4]; 32 g ai/ha): 0; Sprangletop, Brdd. plant response rating ([5]; 32 g ai/ha): 0; Barnyardgrass plant response rating ([6]; 32 g ai/ha): 0; Barnyardgrass plant response rating ([6]; 64 g ai/ha): 0; Barnyardgrass plant response rating ([6]; 125 g ai/ha): 0; Barnyardgrass plant response rating ([6]; 250 g ai/ha): 0; Plant response rating, Barnyardgrass [6]: 0
Nc1nc(-c2ccc(Cl)cc2)nc(C(=O)[O-])c1Cl.[Na+] [Compound 117] | 0 | 0 | 30 | 0 | 0 | 0 | 0 | 0 | 100 | 100 | 100 | 100 | 0 | 0 | 20 | 0 | 0 | 0 | 0 | 0 | Redstem plant response rating ([1]; 32 g ai/ha): 0; Watergrass, Late plant response rating ([2]; 32 g ai/ha): 0; Flatsedge, Rice plant response rating ([3]; 32 g ai/ha): 100; Rice, Transplanted plant response rating ([4]; 32 g ai/ha): 0; Sprangletop, Brdd. plant response rating ([5]; 32 g ai/ha): 0; Barnyardgrass plant response rating ([6]; 32 g ai/ha): 0; Barnyardgrass plant response rating ([6]; 64 g ai/ha): 0; Barnyardgrass plant response rating ([6]; 125 g ai/ha): 0; Barnyardgrass plant response rating ([6]; 250 g ai/ha): 0; Plant response rating, Barnyardgrass [6]: 0
COC(=O)c1nc(-c2ccc(I)cc2)nc(N)c1Br [Compound 128] | 80 | 90 | 90 | 0 | 0 | 0 | 0 | 0 | 0 | 60 | 80 | 0 | 0 | 0 | 0 | 0 | 0 | 0 | 80 | 0 | Redstem plant response rating ([1]; 32 g ai/ha): 75; Watergrass, Late plant response rating ([2]; 32 g ai/ha): 0; Flatsedge, Rice plant response rating ([3]; 32 g ai/ha): 0; Rice, Transplanted plant response rating ([4]; 32 g ai/ha): 0; Sprangletop, Brdd. plant response rating ([5]; 32 g ai/ha): 0; Barnyardgrass plant response rating ([6]; 32 g ai/ha): 0; Barnyardgrass plant response rating ([6]; 64 g ai/ha): 0; Barnyardgrass plant response rating ([6]; 125 g ai/ha): 0; Barnyardgrass plant response rating ([6]; 250 g ai/ha): 0; Plant response rating, Barnyardgrass [6]: 0
CCOC(=O)c1nc(-c2ccc(I)cc2)nc(N)c1Cl [Compound 133] | 65 | 75 | 85 | 0 | 0 | 0 | 0 | 0 | 95 | 95 | 100 | 30 | 0 | 0 | 0 | 0 | 0 | 0 | 0 | 0 | Plant response rating, Redstem ([1]; 32 g ai/ha): 20; Plant response rating, Watergrass, Late ([2]; 32 g ai/ha): 0; Plant response rating, Flatsedge, Rice ([3]; 32 g ai/ha): 65; Plant response rating, Rice, Transplanted ([4]; 32 g ai/ha): 0; Plant response rating, Sprangletop, Brdd. ([5]; 32 g ai/ha): 0; Barnyardgrass plant response rating ([6]; 32 g ai/ha): 0; Barnyardgrass plant response rating ([6]; 64 g ai/ha): 0; Barnyardgrass plant response rating ([6]; 125 g ai/ha): 0; Barnyardgrass plant response rating ([6]; 250 g ai/ha): 0; Plant response rating, Barnyardgrass [6]: 0
